Measurements published in patent publication US9145401B2, “Amide derivative and use of the same as stability index of a luliconazole pharmaceutical formulation” (POLA PHARMA INC., priority 2012, dated 2015).

System: fungi
Test: Antifungal activity of the amide form

Compound: NC(=O)/C(=C1/SCC(c2ccc(Cl)cc2Cl)S1)n1ccnc1 (single isomer, unassigned) [amide form, [R-(E)]-α-[4-(2,4-dichlorophenyl)-1,3-dithiolan-2-ylidene]-1H-imidazole-1-acetamide]
- antifungal activity: low
